Measured values reported in patent publication US20150209379A1, “TREATMENT OF PROSTATE CANCER AND HEMATOLOGIC NEOPLASMS” (THOMAS JEFFERSON UNIVERSITY, priority 2012, published 2015).

System: Stat5a/b
Assay: Constitutive Stat5a/b phosphorylation in K562 cells (Western blot)
Type: cell-based, human
Method: Exponentially growing K562 cells were treated with 5 μM Compound 1, Compound 2 or control for 3 h after which the cells were harvested. Cell pellets were solubilized in lysis buffer [10 mM Tris-HCl (pH 7.6), 5 mM EDTA, 50 mM sodium chloride, 30 mM sodium pyrophosphate, 50 mM sodium fluoride, 1 mM sodium orthovanadate, 1% Triton X-100, 1 mM phenylmethylsulfonyl fluoride, 5 μg/mlaprotinin, 1 μg/ml pepstatin A, and 2 μg/ml leupeptin], rotated end-over-end at 4° C. for 60 min, and insoluble material was pelleted at 12,000×g for 30 min at 4° C. The protein concentrations of clarified cell lysates were determined by simplified Bradford method (Bio-Rad Laboratories, Hercules, Calif.). Western blotting of the lysates was carried out using, as primary antibodies, the following antibodies at the following concentrations: anti-phosphotyrosine-Stat5a/b (Y694/Y699) mAb (1 μg/ml, Advantex BioReagents, Conroe, Tex.) or anti-Stat5ab mAb (1:250; BD Biosciences, San Jose, Calif.), anti-human Abl mAb (Calbiochem).
Exponentially growing K562 cells were treated with NBPP for 3 h or 6 h after which the cells were harvested. Exponentially growing K562 cells or imatinib-resistant K562 cells were treated with NBPP for 6 h or 16 h after which the cells were harvested. Cell pellets were solubilized in lysis buffer [10 mM Tris-HCl (pH 7.6), 5 mM EDTA, 50 mM sodium chloride, 30 mM sodium pyrophosphate, 50 mM sodium fluoride, 1 mM sodium orthovanadate, 1% Triton X-100, 1 mM phenylmethylsulfonyl fluoride, 5 μg/ml aprotinin, 1 μg/ml pepstatin A, and 2 μg/ml leupeptin], rotated end-over-end at 4° C. for 60 min, and insoluble material was pelleted at 12,000×g for 30 min at 4° C. The protein concentrations of clarified cell lysates were determined by simplified Bradford method (Bio-Rad Laboratories, Hercules, Calif.). […]

Structure (SMILES)	effect on phosphorylation of Stat5 (K562, 5 μM, 3 h)	effect on phosphorylation of Stat5 (K562, indicated concentrations, 3 or 6 hours)
OC[C@H]1O[C@@H](n2cnc3c(N4CCc5ccccc5C4)ncnc32)[C@H](O)[C@@H]1O [Compound 1, (2R,3R,4S,5R)-2-(6-(3,4-Dihydroisoquinolin-2(1H)-yl)-9H-purin-9-yl)-5-(hydroxymethyl)tetrahydrofuran-3,4-diol]	block phosphorylation of Stat5	
OC[C@H]1O[C@@H](n2ccc3c(NCc4ccccc4)ncnc32)[C@H](O)[C@@H]1O [NBPP, N-(phenylmethyl)-7-β-D-ribofuranosyl-7H-pyrrolo[2,3-d]pyrimidin-4-amine]		inhibited phosphorylation of Stat5
OC[C@H]1O[C@@H](n2cnc3c(NNc4ccccc4)ncnc32)[C@H](O)[C@@H]1O [Compound 2, (2R,3S,4R,5R)-2-(hydroxymethyl)-5-(6-(2-phenylhydrazinyl)-9H-purin-9-yl)tetrahydrofuran-3,4-diol]	block phosphorylation of Stat5	
